From patent US10273278B2, “Epitope recognized by anti-interferon gamma autoantibodies in patients with disseminated mycobacterial infections and the application therefor” (priority 2015, dated 2019)
Ends that are not written are not given here.

Experiments:
[1] = tested on: WKY/NcrlNarl rats; assay: Immunization of rats with Noc2 or IFNr peptide conjugated with OVA; format: in vivo, rat; details: 0.25 mg peptide-OVA, booster every two weeks
Description: The inventor immunized WKY/NcrlNarl rats with 0.25 mg Noc2 or IFNr[…] peptide (Noc2: […] (SEQ NO: 31); IFNr: […] (SEQ NO: 32)) conjugated with ovalbumin (OVA) and gave a booster dose every two weeks after the initial injection (day 0). After 70 days, the inventor checked the antibody production level by dot blot or ELISA at each injection. All rats were sacrificed ten days after the tenth injection (day 136) and whole blood was collected. After collection of the whole blood, the blood was allowed to clot by leaving it undisturbed at room temperature 15 minutes. Clots were removed by centrifuging at 1500 g for 10 minutes in a refrigerated centrifuge. Sera were aliquoted and stored at −20° C. for further use.
Blood sera from pre-immunized rats (n=6), Noc2 peptide-immunized rats (n=4) and Peptide 6-immunized rats (n=2) were mapped to control peptide, Peptide 6 and Noc2 peptide from Aspergillus terreus or Aspergillus fumigatus. This is represented as the mean optical density (OD) at 405 nm.

[2] = molecular target: T1, human IFNr (Homo sapiens, UniProt P01579); assay: Blocking of hIFNr detection by sera of immunized rats; format: binding; details: sera incubated with 200 pg/mL of human IFNr
T1 sequence (P01579 24-166): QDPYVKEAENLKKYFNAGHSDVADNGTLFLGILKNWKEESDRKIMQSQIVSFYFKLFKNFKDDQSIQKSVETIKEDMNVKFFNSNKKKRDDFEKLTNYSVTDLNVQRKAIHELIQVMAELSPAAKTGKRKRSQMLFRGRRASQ
Description: Blood plasma from patients and donors was serially diluted (10^−1 to 10^−6) and incubated with recombinant human IFNr at a final concentration of 200 pg/mL for 1 hour at 37° C. The IFNr level was measured with a human IFNr ELISA kit from BD Biosciences according to the manufacturer's recommendations. All experiments were performed in duplicate.
However, blood sera from Noc2 peptide-immunized rats (n=4) and Peptide 6-immunized rats (n=2) at dilutions of up to 1/10^2 inhibited the detection of hIFNr.

[3] = tested on: THP1 cells; assay: p-STAT1 in THP1 cells pre-incubated with sera of immunized rats and treated with IFNr; format: cell-based; details: 50% sera
[4] = tested on: anti-IFNr AutoAbs; assay: Protein mapping ELISA of recombinant IFNr proteins with blood plasma; format: binding, human; details: patients' blood plasma, OD 405 nm
[5] = tested on: anti-IFNr AutoAbs; assay: Immunoblotting (Western blot / dot blot) with patient or control plasma; format: binding, human; details: plasma from healthy donors
Description: Recombinant IFNr[…] (R&D Systems) and different truncated forms of recombinant IFNr[…] were subjected to SDS-PAGE using a 10% gel under reducing conditions at 120 V for 2 hours. The proteins were transferred to a PVDF membrane (Invitrogen Life Technologies) at 250 mA for 2 hours. The membrane was blocked in 5% human normal serum albumin (Aventis) in TBS with 0.1% Tween 20 overnight at 4° C. The membrane was incubated with a 1/100 dilution of patient or control blood plasma for 3 hours at room temperature. After being washed three times, the membrane was incubated in a 1/10,000 dilution of mouse anti-human IgG conjugated with horseradish peroxidase (Jackson ImmunoResearch Laboratories) for 1 hour at room temperature. After being washed three times, the membrane was developed with ECL (Merck Millipore).
Plasma from 3 healthy donors had no response to either IFNr1-131 or EE-IFNr.

[6] = tested on: p-STAT1 in PBMCs; assay: p-STAT1 intracellular stain in PBMCs (CD14+ gated); format: cell-based, human
Description: A total of 10^6 PBMCs in 200 μL RPMI-1640 with 10% FBS and 1% penicillin/streptomycin was used. […] After 30 minutes of stimulation in a 37° C. incubator, monocytes were identified by FITC-CD14 (BD Pharmingen) surface staining. Fixed by adding 250 μL of FASC lysing solution (BD Pharmingen) and incubated at room temperature for 15 minutes in the dark, followed by two washes with PBS. To permeabilize the cells, 500 μl of ice-cold absolute methanol was added to each tube and incubated for 15 minutes on ice in the dark, followed by two washes with PBS. Next, PE-phospho-STAT1 (pY701) antibody (BD Pharmingen) was added, followed by 30 minutes incubation on ice in the dark. Again, cells were washed with 2 mL of PBS before resuspension in the 500 μL of PBS. Data were collected with a FACSVerse flow cytometer (BD Biosciences) and analyzed using FACSuite software (BD Biosciences).
Representative histograms (FIG. 2c(1)-FIG. 2c(2)) and MFI (median fluorescence intensity) (FIG. 2d) are shown.
After being gated on the CD14^+, p-STAT-1 levels were determined by flow cytometry with the p-STAT-1 monoclonal antibody. Representative histograms (FIG. 4a(1)-FIG. 4a(2)) and MFI (median fluorescence intensity) (FIG. 4b) are shown.

[7] = tested on: IL-12p40 in PBMCs; format: cell-based, human
[8] = tested on: HLA-DR expression in PBMCs; assay: HLA-DR expression in PBMCs (CD14+ gated); format: cell-based, human; details: IFNr AutoAbs patients' PBMCs pre-incubated with 10% autologous plasma
Description: A total of 10^6 PBMCs in 200 μL RPMI-1640 with 10% FBS and 1% penicillin/streptomycin was used. Cells were then stimulated with 500 IU IFNr, IFNr_1-131 or EE-IFNr⋅ in 160 μL RPMI-1640 pre-incubated with 40 μL of normal blood plasma or patient blood plasma for 10 min at room temperature. After 24 hours of stimulation in a 37° C. incubator, monocytes were identified by FITC-CD14 (BD Pharmingen) surface staining. Next, PE-HLA-DR antibody (BD Pharmingen) was added followed by 30 minutes of incubation on ice in the dark. Cells were again washed with 2 ml of PBS before resuspension in 500 μl of PBS. Data were collected with a FACSVerse flow cytometer (BD Biosciences) and analyzed using FACSuite software (BD Biosciences).
After being gated on the CD14^+, HLA-DR expression levels were determined by flow cytometry with the HLA-DR monoclonal antibody. Representative histograms (FIG. 4d(1)-FIG. 4d(2)) and MFI (median fluorescence intensity) (FIG. 4e) are shown.

[9] = tested on: THP1 cells; assay: HLA-DR expression in THP1 cells; format: cell-based; details: in the presence of anti-IFNr AutoAbs
[10] = tested on: p-STAT1 in whole blood; assay: p-STAT1 in whole blood ex vivo; format: cell-based, human
Description: Representative histograms (FIG. 4f(1)-FIG. 4f(2)) and MFI (median fluorescence intensity) (FIG. 4g) are shown.

[11] = tested on: IL-12p40 in whole blood; format: cell-based, human

| Substance | antibodies developed after immunization [1] | blocking of hIFNr detection by sera of immunized rats (serum dilution) [2] | p-STAT1 signaling after recombinant IFNr in presence of sera of immunized rats [3] | affinity of anti-IFNr AutoAbs by ELISA [4] | binding of plasma from healthy controls in Western blot [5] | p-STAT1 signaling restored / up-regulated ([6]; IFNr AutoAbs patients' PBMCs pre-incubated with 10% autologous blood plasma) | phosphorylation of STAT1 ([6]; controls' PBMCs pre-incubated with 20% blood plasma with anti-IFNr AutoAbs from patients) | p-STAT1 signaling ([6]; controls' PBMCs, 20% control blood plasma) | IL-12p40 expression [7] | IL-12p40 production restored [7] | HLA-DR expression levels restored / up-regulated [8] | HLA-DR expression [9] | p-STAT1 signaling restored / up-regulated ([10]; IFNr AutoAbs patients' whole blood) | p-STAT1 signal ([10]; controls' whole blood) | IL-12p40 production restored [11] |
| --- | --- | --- | --- | --- | --- | --- | --- | --- | --- | --- | --- | --- | --- | --- | --- |
| CAAKTGKRKRSQM (also: conjugated to ovalbumin; UniProt P01579 146-157, looked up, fragment) | developed antibodies to human IFNr, which could cross-react with Aspergillus Noc2 | can block human recombinant IFNr | decreased up-regulation of p-STAT1 signaling |  |  |  |  |  |  |  |  |  |  |  |  |
| EE-IFNr: IFNr_1-131 protein with human P121-127 SPAAKTG sequence substituted with murine LPESSLR sequence (SEQ NO: 1) (listed as Mus musculus) |  |  |  | markedly decreased in comparison with wild type (WT) IFNr_1-131 | no response | four of six | could induce the phosphorylation of STAT1 | Up-regulation of the p-STAT1 signaling was observed | did restore IL-12p40 expression | three of six | four of six | up-regulation of HLA-DR expression | four of six | up-regulated | three of six |
